Converted amounts (≈) assume the structure as drawn.
Columns and labels:
[1] = assay type: physicochemical
From the text: The invention includes within its scope pharmaceutical compositions containing at least one of the above-mentioned antibiotic compounds and a pharmaceutically acceptable carrier. The compositions may also contain other active antibacterial agents. The compositions may be made up in any pharmaceutical form appropriate for the route of administration in question. Such compositions are exemplified by solid compositions for oral administration, such as tablets, capsules, pills, powders and granules; liquid compositions for oral administration such as solutions, suspensions, syrups and elixirs; preparations for parenteral administration such as sterile solutions, suspensions or emulsions; and preparations for topical administration such as gels, creams, ointments or salves. […] In 40% prophylene glycol in water (V/V), the solubility of HPB4 free base is greater than about 200 mg/ml. […] The solubility of HPB4.K is about 300 mg/ml. The solubility of HPB4.2HCl is about 600 mg/ml.
(§1) The solubility of the potassium salt is about 300 mg/ml in water.

pH of aqueous solution = assay type: physicochemical; settings: 100 mg/ml aqueous solution
Procedure: as §1

[2] = predicted human half-life; settings: in comparison to vancomycin
S. faecalis = assay: mice infected intraperitoneally, dosed 1 hr after infection, ED50; assay type: in vivo
Procedure: (§2) The in vivo activity of the CWI-785 complex and its components and hydrolysis products was confirmed by administering selected CWI-785 antibiotics to mice infected with various gram-positive pathogens. In one representative assay, in which mice infected intraperitoneally with 46.8 LD50 's of S. aureus (strain 1, Tables 1 and 2) were dosed once, subcutaneously one hour after infection, the following ED50 's (mg/kg) were observed: CWI-785B: 2.4, CWI-785C: 3.1, CWI-785: 3.8, HPB3: 0.9, vancomycin: 0.7. In a second representative assay carried out as above except that mice were infected with 3.17 LD50 's of S. faecalis (strain 9, Table 2), the following ED50 's were observed: HPB3 hydrochloride: 1.6, HPB4 hydrochloride: 1.6, vancomycin: 2.2, teicoplanin: 1.3.
(§3) In Table 6, below, is shown the ED50 in mg/kg of HPB4 in comparison to vancomycin and teicoplanin. Mice were injected i.p. with the indicated organism and then i.v., 1 hr post infection, with the indicated antibiotic.

S. aureus = assay: as above; assay type: in vivo; settings: for ED50: antibiotic i.v. 1 hr post infection
Procedure: as §2, §3

[3] = tested on: Staphylococcus saprophyticus; assay: standard microtiter assay, minimum inhibitory concentration; assay type: cell-based; settings: for MIC: Table 5 organism 6 S. saprophyticus
From the text: (§4) Representative results of standard microtiter assays are reported in Tables 1, 2 and 3 which follow, as the minimum inhibitory concentration of antibiotic (μg/ml).
(§5) In Table 1, test organisms 1-13 were different strains of Staphylococcus aureus, and 14-16 were different strains of Staphylococcus epidermidis. In Table 2, test organisms 1-5 were different strains of S. aureus; 6, 8, 12 and 14 were different strains of S. epidermidis; 7 was a Staphylococcus haemolyticus; 9 and 10 were different strains of Streptococcus faecalis; 11 was a Streptococcus pyogenes; and 13 was a Staphylococcus saprophyticus. In Table 3, test organisms 1-3 were different strains of S. aureus; 4 and 6 were different strains of S. epidermidis; 5 was a S. haemolyticus and 7 and 8 were different strains of Streptococcus faecalis. Except where individual components are indicated, the CWI-785 antibiotic employed was the CWI-785 complex; in some cases, HCl salts of the CWI-785 antibiotic were employed.
(§6) In Table 5 are shown data from standard microtiter assays carried out in a presence of no serum, 50% human serum (hum.) and 50% mouse serum (mse.). The test organisms were 1: S. aureus; 2,4 and 5: different strains of S. epidermidis; 3: S. haemolyticus; 6: S. saprophyticus; 7 and 8: different strains of S. faecalis.

[4] = tested on: Staphylococcus epidermidis; assay: as above; assay type: cell-based
From the text: as §4, §5, §6

[5] = tested on: Staphylococcus haemolyticus; assay: as above; assay type: cell-based; settings: for MIC: Table 5 organism 3 S. haemolyticus
From the text: as §4, §5, §6

gram-positive organisms = assay: in vitro antibacterial activity (stated in words); assay type: cell-based; settings: in vitro data
From the text: Unless specifically indicated, as used herein, CWI-785B, HPB4 and HPB3 will mean a mixture of epimers. Analogous ' and " epimers of other components of the CWI-785 complex also exist and are included within the scope of the invention.

Streptococcus faecalis = assay: standard microtiter assay, minimum inhibitory concentration; assay type: cell-based
From the text: as §4, §5
(§7) The number of strains tested is shown in parentheses below each organism. The average MIC is reported in μg/ml.
as §6

Staphylococcus aureus = assay: as above; assay type: cell-based; settings: for MIC: Table 5 organism 1 S. aureus
From the text: as §4, §5, §7, §6

Streptococcus pyogenes = assay: as above; assay type: cell-based; settings: Table 2 test organism 11, Streptococcus pyogenes
From the text: as §4, §5

Viridans = assay: MIC against an expanded panel; assay type: cell-based; settings: Table 4, Viridans (2 strains)
From the text: as §7

Coag-neg. Staphylococci = assay: MIC against an expanded panel; assay type: cell-based; settings: Table 4, Coag-neg. Staphylococci (24 strains)
From the text: as §7

JK Diptheroids = assay: MIC against an expanded panel; assay type: cell-based; settings: Table 4, JK Diptheroids (19 strains)
From the text: as §7

Group A Strep. = assay: MIC against an expanded panel; assay type: cell-based; settings: Table 4, Group A Strep. (6 strains)
From the text: as §7

Group B Strep. = assay: MIC against an expanded panel; assay type: cell-based; settings: Table 4, Group B Strep. (4 strains)
From the text: as §7

S. epidermidis = assay: mice infected i.p., antibiotic i.v. 1 hr post infection, ED50; assay type: in vivo; settings: S. epidermidis 2479 (>1000 × LD50) i.p., antibiotic i.v. 1 hr post infection
Procedure: as §3

S. haemolyticus = assay: as above; assay type: in vivo; settings: S. haemolyticus 651 (8 × LD50) i.p., antibiotic i.v. 1 hr post infection
Procedure: as §3

[6] = Table 4, Strep. faecalis (12 strains)
[7] = Table 4, S. aureus (30 strains)

Question: Which results are given for `CNC(C(=O)NC1C(=O)NC(CCSC)C(=O)NC2C(=O)NC3C(=O)NC(C(=O)NC(C(=O)[O-])c4cc(O)cc(O)c4-c4cc3ccc4O)C(OC3CC(N)C(O)C(C)O3)c3ccc(c(Cl)c3)Oc3cc2cc(c3O)Oc2ccc(cc2)C1O)c1ccc(O)cc1.[K+]` (stereo not drawn) [HPB4.K]?
Answer: solubility [1]: about 300 mg/ml; pH of aqueous solution (pH of aqueous solution): 9.29

Question: What does the source list for `CNC(C(=O)NC1C(=O)NC(CCSC)C(=O)NC2C(=O)NC3C(=O)NC(C(=O)NC(C(=O)O)c4cc(O)cc(O)c4-c4cc3ccc4O)C(O[C@H]3C[C@@H](N)[C@@H](O)[C@H](C)O3)c3ccc(c(Cl)c3)Oc3cc2cc(c3O)Oc2ccc(cc2)C1O)c1ccc(O)cc1` (stereo partly drawn) [HPB4]?
Answer: human half-life (predicted) [2]: at least 12 hours; ED50 (S. faecalis; S. faecalis 34358 (9 × LD50) i.p., antibiotic i.v. 1 hr post infection): 1.0 mg/kg; in vivo effectiveness relative to HPB4" (S. faecalis; against S. faecalis 34358): fourfold more effective; ED50 (S. aureus; S. aureus 2620 (24 × LD50) i.p.): 1.6 mg/kg; ED50 (S. aureus; S. aureus HH 127 (35 × LD50) i.p.): 1.8 mg/kg; in vivo effectiveness relative to HPB4" (S. aureus; against S. aureus 127): fourfold more effective; minimum inhibitory concentration ([3]; Table 2 test organism 13, Staphylococcus saprophyticus): 1.6 µg/mL (≈ 1.24 µM); MIC ([3]; 50% Hum. Serum): 6.3 µg/mL (≈ 4.88 µM); MIC ([3]; 50% Mse. Serum): 0.2 µg/mL (≈ 0.155 µM); MIC ([3]; No Serum): 0.8 µg/mL (≈ 0.619 µM); minimum inhibitory concentration ([4]; Table 2 test organism 6, S. epidermidis strain): 1.6 µg/mL (≈ 1.24 µM); minimum inhibitory concentration ([4]; Table 2 test organism 8, S. epidermidis strain): 3.1 µg/mL (≈ 2.4 µM); minimum inhibitory concentration ([4]; Table 2 test organism 12, S. epidermidis strain): 1.6 µg/mL (≈ 1.24 µM); minimum inhibitory concentration ([4]; Table 2 test organism 14, S. epidermidis strain): 0.8 µg/mL (≈ 0.619 µM); MIC ([4]; Table 5 organism 2 S. epidermidis, 50% Hum. Serum): 3.1 µg/mL (≈ 2.4 µM); MIC ([4]; Table 5 organism 2 S. epidermidis, 50% Mse. Serum): 3.1 µg/mL (≈ 2.4 µM); MIC ([4]; Table 5 organism 2 S. epidermidis, No Serum): 1.6 µg/mL (≈ 1.24 µM); MIC ([4]; Table 5 organism 4 S. epidermidis, 50% Hum. Serum): 3.1 µg/mL (≈ 2.4 µM); MIC ([4]; Table 5 organism 4 S. epidermidis, 50% Mse. Serum): 3.1 µg/mL (≈ 2.4 µM); MIC ([4]; Table 5 organism 4 S. epidermidis, No Serum): 3.1 µg/mL (≈ 2.4 µM); MIC ([4]; Table 5 organism 5 S. epidermidis, 50% Hum. Serum): 3.1 µg/mL (≈ 2.4 µM); MIC ([4]; Table 5 organism 5 S. epidermidis, 50% Mse. Serum): 1.6 µg/mL (≈ 1.24 µM); MIC ([4]; Table 5 organism 5 S. epidermidis, No Serum): 0.8 µg/mL (≈ 0.619 µM); minimum inhibitory concentration ([5]; Table 2 test organism 7, Staphylococcus haemolyticus): 1.6 µg/mL (≈ 1.24 µM); MIC ([5]; 50% Hum. Serum): 6.3 µg/mL (≈ 4.88 µM); MIC ([5]; 50% Mse. Serum): 6.3 µg/mL (≈ 4.88 µM); MIC ([5]; No Serum): 1.6 µg/mL (≈ 1.24 µM); in vitro activity relative to the corresponding B" isomer (gram-positive organisms): more active; minimum inhibitory concentration (Streptococcus faecalis; Table 2 test organism 9, Streptococcus faecalis strain): 0.8 µg/mL (≈ 0.619 µM); minimum inhibitory concentration (Streptococcus faecalis; Table 2 test organism 10, Streptococcus faecalis strain): 0.8 µg/mL (≈ 0.619 µM); MIC50 (Streptococcus faecalis; [6]): 0.4 µg/mL (≈ 0.31 µM); MIC RANGE (Streptococcus faecalis; [6]): 0.2 to 0.8 µg/mL; MBC50 (Streptococcus faecalis; Table 4, Strep. faecalis MBC50): 12.5 µg/mL (≈ 9.68 µM); MBC RANGE (Streptococcus faecalis; Table 4, Strep. faecalis MBC50 column): 3.1 to 25 µg/mL; MIC (Streptococcus faecalis; Table 5 organism 7 S. faecalis, 50% Hum. Serum): 3.1 µg/mL (≈ 2.4 µM); MIC (Streptococcus faecalis; Table 5 organism 7 S. faecalis, 50% Mse. Serum): 3.1 µg/mL (≈ 2.4 µM); MIC (Streptococcus faecalis; Table 5 organism 7 S. faecalis, No Serum): 0.4 µg/mL (≈ 0.31 µM); MIC (Streptococcus faecalis; Table 5 organism 8 S. faecalis, 50% Hum. Serum): 3.1 µg/mL (≈ 2.4 µM); MIC (Streptococcus faecalis; Table 5 organism 8 S. faecalis, 50% Mse. Serum): 3.1 µg/mL (≈ 2.4 µM); MIC (Streptococcus faecalis; Table 5 organism 8 S. faecalis, No Serum): 0.4 µg/mL (≈ 0.31 µM); minimum inhibitory concentration (Staphylococcus aureus; Table 2 test organism 1, S. aureus strain): 1.6 µg/mL (≈ 1.24 µM); minimum inhibitory concentration (Staphylococcus aureus; Table 2 test organism 2, S. aureus strain): 0.8 µg/mL (≈ 0.619 µM); minimum inhibitory concentration (Staphylococcus aureus; Table 2 test organism 3, S. aureus strain): 0.8 µg/mL (≈ 0.619 µM); minimum inhibitory concentration (Staphylococcus aureus; Table 2 test organism 4, S. aureus strain): 0.8 µg/mL (≈ 0.619 µM); minimum inhibitory concentration (Staphylococcus aureus; Table 2 test organism 5, S. aureus strain): 0.8 µg/mL (≈ 0.619 µM); MIC50 (Staphylococcus aureus; [7]): 0.8 µg/mL (≈ 0.619 µM); MIC RANGE (Staphylococcus aureus; [7]): 0.2 to 0.8 µg/mL; MIC (Staphylococcus aureus; 50% Hum. Serum): 1.6 µg/mL (≈ 1.24 µM); MIC (Staphylococcus aureus; 50% Mse. Serum): 1.6 µg/mL (≈ 1.24 µM); MIC (Staphylococcus aureus; No Serum): 1.6 µg/mL (≈ 1.24 µM); minimum inhibitory concentration (Streptococcus pyogenes): 0.2 µg/mL (≈ 0.155 µM); MIC RANGE (Viridans): 0.025 to 0.8 µg/mL; MIC50 (Coag-neg. Staphylococci): 1.6 µg/mL (≈ 1.24 µM); MIC RANGE (Coag-neg. Staphylococci): 0.4 to 3.1 µg/mL; MIC50 (JK Diptheroids): 0.4 µg/mL (≈ 0.31 µM); MIC RANGE (JK Diptheroids): 0.4 to 0.8 µg/mL; MIC50 (Group A Strep.): 0.4 µg/mL (≈ 0.31 µM); MIC RANGE (Group A Strep.): 0.05 to 0.8 µg/mL; MIC RANGE (Group B Strep.): 0.1 to 0.8 µg/mL; ED50 (S. epidermidis): 2.0 mg/kg; ED50 (S. haemolyticus): 20 mg/kg
